Test system: 953936-095-R-J2-PDC spheroids with HUVEC/MSC, viability
Experiment: Anticancer human tumor 953936-095-R-J2-PDC patient-derived cervical squamous cell carcinoma cell line growth inhibition [PI3K]
Settings: for IC50: curve of first compound; for viability, T/C: stronger effect = lower value
In short: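 Combination activity was assessed by viability in multicellular tumor spheroids carrying HUVEC and MSC components. Agents were tested with PI3K inhibitors from a Cmax-based top dose (or 10 microM) downward in half-log increments.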

[1] = second compound 0.00316 µM, first compound 0.0316 µM
[2] = second compound 0.00316 µM, first compound 0.1 µM
[3] = second compound 0.01 µM, first compound 0.0316 µM
[4] = second compound 0.01 µM, first compound 0.1 µM
[5] = second compound 0.0316 µM, first compound 0.0316 µM
[6] = second compound 0.0316 µM, first compound 0.1 µM
[7] = second compound 0.1 µM, first compound 0.0316 µM
[8] = second compound 0.1 µM, first compound 0.1 µM
[9] = second compound 0.316 µM, first compound 0.0316 µM
[10] = second compound 0.316 µM, first compound 0.1 µM
[11] = second compound 1 µM, first compound 0.0316 µM
[12] = second compound 1 µM, first compound 0.1 µM
[13] = second compound 0.00316 µM, first compound 0.316 µM
[14] = second compound 0.00316 µM, first compound 1 µM
[15] = second compound 0.00316 µM, first compound 3.16 µM
[16] = second compound 0.00316 µM, first compound 10 µM
[17] = second compound 0.01 µM, first compound 0.316 µM
[18] = second compound 0.01 µM, first compound 1 µM
[19] = second compound 0.01 µM, first compound 3.16 µM
[20] = second compound 0.01 µM, first compound 10 µM
[21] = second compound 0.0316 µM, first compound 0.316 µM
[22] = second compound 0.0316 µM, first compound 1 µM
[23] = second compound 0.0316 µM, first compound 3.16 µM
[24] = second compound 0.0316 µM, first compound 10 µM
[25] = second compound 0.1 µM, first compound 0.316 µM
[26] = second compound 0.1 µM, first compound 1 µM
[27] = second compound 0.1 µM, first compound 3.16 µM
[28] = second compound 0.1 µM, first compound 10 µM
[29] = second compound 0.316 µM, first compound 0.316 µM
[30] = second compound 0.316 µM, first compound 1 µM
[31] = second compound 0.316 µM, first compound 3.16 µM
[32] = second compound 0.316 µM, first compound 10 µM
[33] = second compound 1 µM, first compound 0.316 µM
[34] = second compound 1 µM, first compound 1 µM
[35] = second compound 1 µM, first compound 3.16 µM
[36] = second compound 1 µM, first compound 10 µM
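Note: spheroids exposed to compounds for seven days before read-out.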

CC(C)n1nc(-c2ccc3oc(N)nc3c2)c2c(N)ncnc21 + COc1c(OCCCN2CCOCC2)ccc2c3n(c(=NC(=O)c4cnc(N)nc4)nc12)CCN3
IC50 (second compound 0.00316 µM): 0.0189 µM | IC50 (second compound 0.01 µM): 0.0102 µM | IC50 (second compound 0.0316 µM): < 0.000316 µM | IC50 (second compound 0.1 µM): < 0.000316 µM | IC50 (second compound 0.316 µM): < 0.000316 µM | IC50 (second compound 1 µM): < 0.000316 µM | viability, T/C (second compound 0.00316 µM, first compound 0.000316 µM): 79% | viability, T/C (second compound 0.00316 µM, first compound 0.001 µM): 86.9% | viability, T/C (second compound 0.00316 µM, first compound 0.00316 µM): 84% | viability, T/C (second compound 0.00316 µM, first compound 0.01 µM): 60.3% | viability, T/C [1]: 40.3% | viability, T/C [2]: 14.4% | viability, T/C (second compound 0.01 µM, first compound 0.000316 µM): 66.7% | viability, T/C (second compound 0.01 µM, first compound 0.001 µM): 64.8% | viability, T/C (second compound 0.01 µM, first compound 0.00316 µM): 60.1% | viability, T/C (second compound 0.01 µM, first compound 0.01 µM): 51.5% | viability, T/C [3]: 27.8% | viability, T/C [4]: 11.2% | viability, T/C (second compound 0.0316 µM, first compound 0.000316 µM): 38.8% | viability, T/C (second compound 0.0316 µM, first compound 0.001 µM): 36% | viability, T/C (second compound 0.0316 µM, first compound 0.00316 µM): 31.5% | viability, T/C (second compound 0.0316 µM, first compound 0.01 µM): 23.5% | viability, T/C [5]: 16.2% | viability, T/C [6]: 7.15% | viability, T/C (second compound 0.1 µM, first compound 0.000316 µM): 18.2% | viability, T/C (second compound 0.1 µM, first compound 0.001 µM): 15.9% | viability, T/C (second compound 0.1 µM, first compound 0.00316 µM): 14.9% | viability, T/C (second compound 0.1 µM, first compound 0.01 µM): 11.2% | viability, T/C [7]: 8.1% | viability, T/C [8]: 4.33% | viability, T/C (second compound 0.316 µM, first compound 0.000316 µM): 6.68% | viability, T/C (second compound 0.316 µM, first compound 0.001 µM): 6.67% | viability, T/C (second compound 0.316 µM, first compound 0.00316 µM): 5.27% | viability, T/C (second compound 0.316 µM, first compound 0.01 µM): 4.78% | viability, T/C [9]: 3.56% | viability, T/C [10]: 2.2% | viability, T/C (second compound 1 µM, first compound 0.000316 µM): 1.45% | viability, T/C (second compound 1 µM, first compound 0.001 µM): 1.56% | viability, T/C (second compound 1 µM, first compound 0.00316 µM): 1.21% | viability, T/C (second compound 1 µM, first compound 0.01 µM): 1.41% | viability, T/C [11]: 1.36% | viability, T/C [12]: 1.27%

CC1(C)CCC(CN2CCN(c3ccc(C(=O)NS(=O)(=O)c4ccc(NCC5CCOCC5)c([N+](=O)[O-])c4)c(Oc4cnc5[nH]ccc5c4)c3)CC2)=C(c2ccc(Cl)cc2)C1 + COc1c(OCCCN2CCOCC2)ccc2c3n(c(=NC(=O)c4cnc(N)nc4)nc12)CCN3
IC50 (second compound 0.00316 µM): 7.15 µM | IC50 (second compound 0.01 µM): 5.43 µM | IC50 (second compound 0.0316 µM): < 0.0316 µM | IC50 (second compound 0.1 µM): < 0.0316 µM | IC50 (second compound 0.316 µM): < 0.0316 µM | IC50 (second compound 1 µM): < 0.0316 µM | viability, T/C [1]: 82% | viability, T/C [2]: 84.2% | viability, T/C [13]: 93.8% | viability, T/C [14]: 96.2% | viability, T/C [15]: 97.5% | viability, T/C [16]: 33.2% | viability, T/C [3]: 69.6% | viability, T/C [4]: 78.1% | viability, T/C [17]: 68% | viability, T/C [18]: 74.7% | viability, T/C [19]: 70.5% | viability, T/C [20]: 26.6% | viability, T/C [5]: 42% | viability, T/C [6]: 50% | viability, T/C [21]: 41.5% | viability, T/C [22]: 40.1% | viability, T/C [23]: 44.1% | viability, T/C [24]: 21.6% | viability, T/C [7]: 18.2% | viability, T/C [8]: 17.8% | viability, T/C [25]: 18.3% | viability, T/C [26]: 17.1% | viability, T/C [27]: 15.6% | viability, T/C [28]: 6.6% | viability, T/C [9]: 6.6% | viability, T/C [10]: 7.22% | viability, T/C [29]: 7.33% | viability, T/C [30]: 5.61% | viability, T/C [31]: 5.63% | viability, T/C [32]: 3.88% | viability, T/C [11]: 1.61% | viability, T/C [12]: 1.39% | viability, T/C [33]: 1.49% | viability, T/C [34]: 1.3% | viability, T/C [35]: 1.52% | viability, T/C [36]: 0.86%

C[C@@H](NC(=O)c1ncnc(N)c1Cl)c1ncc(C(=O)Nc2cc(C(F)(F)F)c(Cl)cn2)s1 + COc1c(OCCCN2CCOCC2)ccc2c3n(c(=NC(=O)c4cnc(N)nc4)nc12)CCN3
IC50 (second compound 0.00316 µM): > 10 µM | IC50 (second compound 0.01 µM): > 10 µM | IC50 (second compound 0.0316 µM): < 0.0316 µM | IC50 (second compound 0.1 µM): < 0.0316 µM | IC50 (second compound 0.316 µM): < 0.0316 µM | IC50 (second compound 1 µM): < 0.0316 µM | viability, T/C [1]: 89.7% | viability, T/C [2]: 91.8% | viability, T/C [13]: 88.7% | viability, T/C [14]: 104% | viability, T/C [15]: 110% | viability, T/C [16]: 106% | viability, T/C [3]: 73.7% | viability, T/C [4]: 77.9% | viability, T/C [17]: 84.7% | viability, T/C [18]: 86.9% | viability, T/C [19]: 85.5% | viability, T/C [20]: 77.3% | viability, T/C [5]: 40.9% | viability, T/C [6]: 50% | viability, T/C [21]: 48.1% | viability, T/C [22]: 49.7% | viability, T/C [23]: 54.9% | viability, T/C [24]: 48.7% | viability, T/C [7]: 19.3% | viability, T/C [8]: 22% | viability, T/C [25]: 22.8% | viability, T/C [26]: 21.9% | viability, T/C [27]: 23% | viability, T/C [28]: 20.7% | viability, T/C [9]: 7.52% | viability, T/C [10]: 8.48% | viability, T/C [29]: 7.48% | viability, T/C [30]: 9.8% | viability, T/C [31]: 10.3% | viability, T/C [32]: 7.69% | viability, T/C [11]: 1.88% | viability, T/C [12]: 2.05% | viability, T/C [33]: 2.83% | viability, T/C [34]: 2.99% | viability, T/C [35]: 3.46% | viability, T/C [36]: 3.33%

— PubChem BioAssay AID1963971 (Molecular Pharmacology Branch, DTP, NCI, 2024)
